Patent US20240148821A1, “PHARMACEUTICAL USE OF CYCLIC PEPTIDE COMPOUND” (CHUGAI SEIYAKU KABUSHIKI KAISHA, priority 2021, published 2024)
Numbered stars: 1 amine (or outer) side, 2 acyl side, 3 side chain; on linkers, the order of the positions; unused ones are H or OH. Bridge positions count the residues as written; N and C are the ends. Square brackets hold non-standard residues; d marks the D form. Peptide text beside a SMILES is read from it. * marks the point of attachment. hPhe(3,5-F2-4-CF3) = N[C@@H](CCc1cc(F)c(C(F)(F)F)c(F)c1)C(=O)O; hPhe(3-Cl-4-CF3) = N[C@@H](CCc1ccc(C(F)(F)F)c(Cl)c1)C(=O)O; NMePhe(4-CF3) = CN[C@@H](Cc1ccc(C(F)(F)F)cc1)C(=O)O; X120 = O=C([C@H](Cc1cc(F)cc(Br)c1)N[*:1])[*:2]; NEtPhe(4-Me) = CCN[C@@H](Cc1ccc(C)cc1)C(=O)O; NMeAbu(4,4,4-F3) = CN[C@@H](CC(F)(F)F)C(=O)O; NMePhe(3-Br) = CN[C@@H](Cc1cccc(Br)c1)C(=O)O; NMePhe(3-Cl) = CN[C@@H](Cc1cccc(Cl)c1)C(=O)O; NMePhe(4-Cl) = CN[C@@H](Cc1ccc(Cl)cc1)C(=O)O; NMeAla(cPent) = CN[C@@H](CC1CCCC1)C(=O)O; Phe(3-Br) = N[C@@H](Cc1cccc(Br)c1)C(=O)O; NMeGly(cPent) = CN[C@H](C(=O)O)C1CCCC1; Phe(3-I) = N[C@@H](Cc1cccc(I)c1)C(=O)O; Pro(4,4-F2) = O=C(O)[C@@H]1CC(F)(F)CN1; NMeAla(cPr) = CN[C@@H](CC1CC1)C(=O)O; Phe(2-F) = N[C@@H](Cc1ccccc1F)C(=O)O; NMeY = CN[C@@H](Cc1ccc(O)cc1)C(=O)O; NMeCha = CN[C@@H](CC1CCCCC1)C(=O)O; NMeGly(cPr) = CN[C@H](C(=O)O)C1CC1; NMeChg = CN[C@H](C(=O)O)C1CCCCC1; NMeD = CN[C@@H](CC(=O)O)C(=O)O; NMeL = CN[C@@H](CC(C)C)C(=O)O; NMeV = CN[C@H](C(=O)O)C(C)C; d(β3hA) = C[C@@H](N)CC(=O)O; NMeAbu = CC[C@H](NC)C(=O)O; Iva = CC[C@](C)(N)C(=O)O; Morpholide = C1CN(*)CCO1; NMeA = CN[C@@H](C)C(=O)O; NMeAib = CNC(C)(C)C(=O)O; Nle = CCCC[C@H](N)C(=O)O; Piperidide = C1CCN(*)CC1; Pyrrolidide = C1CCN(*)C1; Ac5c = NC1(C(=O)O)CCCC1; Aze = O=C(O)[C@@H]1CCN1; Sar = CNCC(=O)O

The compounds below were run on Human pancreatic cancer cell line AsPC-1 (G12D mutation Kras) (assay: AsPC-1 cell growth inhibition (AsPC-1 CGI)). Details: read-out: AsPC-1 cell growth inhibition, 50% growth inhibitory concentration (IC50 value); 96 hours, CellTiter-Glo, values classified in ranges.
Type: cell-based
Method: Test compounds were serially dilated with dimethyl sulfoxide, and 200 nL was then dispensed to a U-bottom 96-well plate using Labcyte Echo. […] The cell suspension was dispensed to a. plate containing a test compound at 100 μL per well and incubated at 37° C. in a 5% carbon dioxide gas incubator. 96 hours later, 80 μL of CellTiter-Glo (Promega) was added to each well and fluorescence was measured.

Row | SMILES | IC50
1 | CC[C@H](C)[C@@H]1NC(=O)[C@H](CC(C)C)N(C)C(=O)C[C@@H](C(=O)N2CCOCC2)N(C)C(=O)[C@H](C2CCCC2)N(C)C(=O)C2(CCCC2)NC(=O)[C@@H]2CCCN2C(=O)[C@H](CCc2cc(F)c(C(F)(F)F)c(F)c2)NC(=O)CN(C)C(=O)[C@H](Cc2ccc(C)cc2)N(CC)C(=O)[C@@H]2CCN2C(=O)[C@H](C)N(C)C1=O [Compound 1368] ([NMeL]I[NMeA][Aze][NEtPhe(4-Me)][Sar][hPhe(3,5-F2-4-CF3)]P[Ac5c][NMeGly(cPent)][NMeD]-Morpholide; lactam N-11) | ≤ 20 nM
2 | CC[C@H](C)[C@@H]1NC(=O)[C@H](CC(C)C)N(C)C(=O)C[C@@H](C(=O)N2CCCCC2)N(C)C(=O)[C@H](C(C)C)N(C)C(=O)C2(CCCC2)NC(=O)[C@@H]2CCCN2C(=O)[C@H](CCc2ccc(C(F)(F)F)c(Cl)c2)NC(=O)CN(C)C(=O)[C@H](CC2CC2)N(C)C(=O)CN(C)C(=O)CN(C)C1=O [Compound 325] ([NMeL]I[Sar][Sar][NMeAla(cPr)][Sar][hPhe(3-Cl-4-CF3)]P[Ac5c][NMeV][NMeD]-Piperidide; lactam N-11) | > 500 nM
3 | CC[C@H](C)[C@@H]1NC(=O)[C@H](C2CC2)N(C)C(=O)C[C@@H](C)NC(=O)[C@H](C(C)C)N(C)C(=O)C2(CCCC2)NC(=O)[C@@H]2CCCN2C(=O)[C@H](CCc2ccc(C(F)(F)F)c(Cl)c2)NC(=O)CN(C)C(=O)[C@H](CC2CCCCC2)N(C)C(=O)CN(C)C(=O)CN(C)C1=O [Compound 844] (cyclo([Ac5c][NMeV][d(β3hA)][NMeGly(cPr)]I[Sar][Sar][NMeCha][Sar][hPhe(3-Cl-4-CF3)]P)) | > 500 nM
4 | CC[C@H](C)[C@@H]1NC(=O)[C@H](CC(C)C)N(C)C(=O)C[C@@H](C(=O)N2CCCCC2)N(C)C(=O)[C@H](CC(C)C)NC(=O)C(C)(C)N(C)C(=O)[C@H](Cc2ccc(OC)cc2)NC(=O)[C@H](Cc2cccc(I)c2)NC(=O)CN(C)C(=O)[C@H](CC2CCCCC2)N(C)C(=O)[C@@H]2CCN2C(=O)[C@H](C)N(C)C1=O [Compound 169] ([NMeL]I[NMeA][Aze][NMeCha][Sar][Phe(3-I)]Y(Me)[NMeAib]L[NMeD]-Piperidide; lactam N-11) | > 500 nM
5 | CC[C@H](C)[C@@H]1NC(=O)[C@H](CC(C)C)N(C)C(=O)C[C@@H](C(=O)N(C)C)N(C)C(=O)[C@H](C2CCCC2)N(C)C(=O)C2(CCCC2)NC(=O)[C@@H]2CC(F)(F)CN2C(=O)[C@H](CCc2cc(F)c(C(F)(F)F)c(F)c2)NC(=O)CN(C)C(=O)[C@H](CC2CCCCC2)N(C)C(=O)[C@@H]2CCN2C(=O)[C@H](C)N(C)C1=O [Compound 1346] ([NMeL]I[NMeA][Aze][NMeCha][Sar][hPhe(3,5-F2-4-CF3)][Pro(4,4-F2)][Ac5c][NMeGly(cPent)][NMeD]-NMe2; lactam N-11) | ≤ 20 nM
6 | CC[C@H](C)[C@@H]1NC(=O)[C@H](CC(C)C)N(C)C(=O)C[C@@H](C(=O)N2CCCCC2)N(C)C(=O)[C@H](C(C)C)N(C)C(=O)C2(CCCC2)NC(=O)[C@@H]2CCCN2C(=O)[C@H](CCc2ccc(C(F)(F)F)c(Cl)c2)NC(=O)CN(C)C(=O)[C@H](CC2CCCCC2)N(C)C(=O)[C@@H]2CCN2C(=O)[C@H](C2CC2)N(C)C1=O [Compound 1553] ([NMeL]I[NMeGly(cPr)][Aze][NMeCha][Sar][hPhe(3-Cl-4-CF3)]P[Ac5c][NMeV][NMeD]-Piperidide; lactam N-11) | > 500 nM
7 | CC[C@H](C)[C@@H]1NC(=O)[C@H](CC(C)C)N(C)C(=O)C[C@@H](C(=O)N2CCOCC2)N(C)C(=O)[C@H](C(C)C)N(C)C(=O)C2(CCCC2)NC(=O)[C@@H]2CCCN2C(=O)[C@H](CCc2ccc(C(F)(F)F)c(Cl)c2)NC(=O)CN(C)C(=O)[C@H](CC2CCCC2)N(C)C(=O)CN(C)C(=O)CN(C)C1=O [Compound 1848] ([NMeL]I[Sar][Sar][NMeAla(cPent)][Sar][hPhe(3-Cl-4-CF3)]P[Ac5c][NMeV][NMeD]-Morpholide; lactam N-11) | > 500 nM
8 | CC[C@H](C)[C@@H]1NC(=O)[C@H](C2CC2)N(C)C(=O)C[C@@H](C)NC(=O)[C@H](C(C)C)N(C)C(=O)C2(CCCC2)NC(=O)[C@@H]2CCCN2C(=O)[C@H](CCc2ccc(C(F)(F)F)c(Cl)c2)NC(=O)CN(C)C(=O)[C@H](CC2CCCCC2)N(C)C(=O)[C@@H]2CCN2C(=O)[C@H](C)N(C)C1=O [Compound 565] (cyclo([Ac5c][NMeV][d(β3hA)][NMeGly(cPr)]I[NMeA][Aze][NMeCha][Sar][hPhe(3-Cl-4-CF3)]P)) | > 500 nM
9 | CCCC[C@@H]1NC(=O)[C@H](Cc2cccc(Br)c2)NC(=O)CN(C)C(=O)[C@H](Cc2ccc(Cl)cc2)N(C)C(=O)CN(C)C(=O)CN(C)C(=O)[C@H]([C@@H](C)CC)NC(=O)[C@H](CC(C)C)N(C)C(=O)C[C@@H](C(=O)N2CCCCC2)N(C)C(=O)[C@H](CC(C)C)NC(=O)C(C)(C)N(C)C1=O [Compound 1404] ([NMeL]I[Sar][Sar][NMePhe(4-Cl)][Sar][Phe(3-Br)][Nle][NMeAib]L[NMeD]-Piperidide; lactam N-11) | > 500 nM
10 | CCCC[C@@H]1NC(=O)[C@H](Cc2ccccc2F)NC(=O)CN(C)C(=O)[C@H](Cc2ccc(OC)cc2)N(C)C(=O)CN(C)C(=O)CN(C)C(=O)[C@H]([C@@H](C)CC)NC(=O)[C@H](CC(C)C)N(C)C(=O)C[C@@H](C(=O)N2CCCCC2)N(C)C(=O)[C@H](CC(C)C)NC(=O)[C@H](Cc2ccc(OC)cc2)N(C)C1=O [Compound 681] ([NMeL]I[Sar][Sar][NMeY](Me)[Sar][Phe(2-F)][Nle][NMeY](Me)L[NMeD]-Piperidide; lactam N-11) | > 500 nM
11 | CC[C@H](C)[C@@H]1NC(=O)[C@H](CC(C)C)N(C)C(=O)C[C@@H](C)NC(=O)[C@H](CC2CC2)N(C)C(=O)C2(CCCC2)NC(=O)[C@@H]2CCCN2C(=O)[C@H](CCc2ccc(C(F)(F)F)c(Cl)c2)NC(=O)CN(C)C(=O)[C@H](CC2CCCCC2)N(C)C(=O)CN(C)C(=O)CN(C)C1=O [Compound 707] (cyclo([Ac5c][NMeAla(cPr)][d(β3hA)][NMeL]I[Sar][Sar][NMeCha][Sar][hPhe(3-Cl-4-CF3)]P)) | > 500 nM
12 | CC[C@H](C)[C@@H]1NC(=O)[C@H](CC(C)C)N(C)C(=O)C[C@@H](C(=O)N2CCCCC2)N(C)C(=O)[C@H](C(C)C)N(C)C(=O)[C@](C)(CC)NC(=O)[C@@H]2CCCN2C(=O)[C@H](CCc2ccc(C(F)(F)F)c(Cl)c2)NC(=O)CN(C)C(=O)[C@H](CC2CCCCC2)N(C)C(=O)[C@@H]2CCN2C(=O)[C@H](C)N(C)C1=O [Compound 394] ([NMeL]I[NMeA][Aze][NMeCha][Sar][hPhe(3-Cl-4-CF3)]P[Iva][NMeV][NMeD]-Piperidide; lactam N-11) | > 500 nM
13 | CC[C@H](C)[C@@H]1NC(=O)[C@H](CC(C)C)N(C)C(=O)C[C@@H](C)NC(=O)[C@H](C(C)C)N(C)C(=O)C2(CCCC2)NC(=O)[C@@H]2CCCN2C(=O)[C@H](CCc2ccc(C(F)(F)F)c(Cl)c2)NC(=O)CN(C)C(=O)[C@H](Cc2cccc(Br)c2)N(C)C(=O)CN(C)C(=O)CN(C)C1=O [Compound 1587] (cyclo([Ac5c][NMeV][d(β3hA)][NMeL]I[Sar][Sar][NMePhe(3-Br)][Sar][hPhe(3-Cl-4-CF3)]P)) | > 500 nM
14 | CCCC[C@@H]1NC(=O)[C@H](Cc2cc(F)cc(Br)c2)NC(=O)CN(C)C(=O)[C@H](Cc2ccc(OC)cc2)N(C)C(=O)[C@@H]2CCN2C(=O)[C@H](C)N(C)C(=O)[C@H]([C@@H](C)CC)NC(=O)[C@H](CC)N(C)C(=O)C[C@@H](C(=O)N2CCCCC2)N(C)C(=O)[C@H](CC(C)C)NC(=O)C(C)(C)N(C)C1=O [Compound 1372] ([NMeAbu]I[NMeA][Aze][NMeY](Me)[Sar][X120][Nle][NMeAib]L[NMeD]-Piperidide; lactam N-11) | > 500 nM
15 | CC[C@H](C)[C@@H]1NC(=O)[C@H](CC(C)C)N(C)C(=O)C[C@@H](C(=O)N2CCCCC2)N(C)C(=O)[C@H](C2CCCCC2)N(C)C(=O)C2(CCCC2)NC(=O)[C@@H]2CCCN2C(=O)[C@H](CCc2ccc(C(F)(F)F)c(Cl)c2)NC(=O)CN(C)C(=O)[C@H](C2CC2)N(C)C(=O)CN(C)C(=O)CN(C)C1=O [Compound 1666] ([NMeL]I[Sar][Sar][NMeGly(cPr)][Sar][hPhe(3-Cl-4-CF3)]P[Ac5c][NMeChg][NMeD]-Piperidide; lactam N-11) | > 500 nM
16 | CC[C@H](C)[C@@H]1NC(=O)[C@H](C)N(C)C(=O)C[C@@H](C(=O)N2CCCCC2)N(C)C(=O)[C@H](C(C)C)N(C)C(=O)C2(CCCC2)NC(=O)[C@@H]2CCCN2C(=O)[C@H](CCc2ccc(C(F)(F)F)c(Cl)c2)NC(=O)CN(C)C(=O)[C@H](CC2CCCCC2)N(C)C(=O)[C@@H]2CCCN2C(=O)CN(C)C1=O [Compound 1121] ([NMeA]I[Sar]P[NMeCha][Sar][hPhe(3-Cl-4-CF3)]P[Ac5c][NMeV][NMeD]-Piperidide; lactam N-11) | > 500 nM
17 | CC[C@H](C)[C@@H]1NC(=O)[C@H](CC(F)(F)F)N(C)C(=O)C[C@@H](C(=O)N2CCCC2)N(C)C(=O)[C@H](C2CCCCC2)N(C)C(=O)C2(CCCC2)NC(=O)[C@@H]2CCCN2C(=O)[C@H](CCc2ccc(C(F)(F)F)c(Cl)c2)NC(=O)CN(C)C(=O)[C@H](Cc2ccc(C(F)(F)F)cc2)N(C)C(=O)CN(C)C(=O)CN(C)C1=O [Compound 245] ([NMeAbu(4,4,4-F3)]I[Sar][Sar][NMePhe(4-CF3)][Sar][hPhe(3-Cl-4-CF3)]P[Ac5c][NMeChg][NMeD]-Pyrrolidide; lactam N-11) | ≤ 20 nM
18 | CC[C@H](C)[C@@H]1NC(=O)[C@H](C)N(C)C(=O)C[C@@H](C)NC(=O)[C@H](C2CCCC2)N(C)C(=O)C2(CCCC2)NC(=O)[C@@H]2CCCN2C(=O)[C@H](CCc2ccc(C(F)(F)F)c(Cl)c2)NC(=O)CN(C)C(=O)[C@H](Cc2cccc(Cl)c2)N(C)C(=O)[C@@H]2CCCN2C(=O)CN(C)C1=O [Compound 186] (cyclo([Ac5c][NMeGly(cPent)][d(β3hA)][NMeA]I[Sar]P[NMePhe(3-Cl)][Sar][hPhe(3-Cl-4-CF3)]P)) | > 500 nM
